Read-outs that look alike come from different tables or passages of the source.
What was measured:
[1] = Oral bioavailability studies in dogs (plasma concentration by bioassay); assay type: in vivo; details: dog, plasma
Experimental: The bioavailability in marmosets and dogs was determined by sampling the blood via the femoral vein at various time points after administering the renin inhibitor compounds of the invention in polyethylene glycol 400 at an intragastric dose of 10 mg/kg or at an intravenous dose of 1 mg/kg. Compound concentration in plasma was determined using the bioassay technique described below. The percent bioavailability was calculated by dividing the area under the concentration-vs.-time curve obtained from the intragastric experiment by the area under the concentration-vs.-time curve obtained from the intravenous experiment (adjusting for different doses), and multiplying the result by 100%. The bioavailibility of Example 1 compound is 27% in marmosets and 33% in dogs.
Renin inhibitor plasma concentrations were determined by a bioassay. The plasma samples were extracted with acetonitrile and the extract was evaporated to dryness under nitrogen. Residue was dissolved in 4% bovine serum albumin containing 0.9% NaCl and 5% EDTA. The dissolved residue (0.1 ml) was incubated with a reaction mixture containing human plasma (0.12 ml), 5% phenylmethysulfonylfluoride (1.2 ul), 10% neomycin (2.4 ul), 0.5 M TES buffer (pH 7.4, 24 ul), and 0.6 mU/ml recombinant human renin (1000 U/mg, 50 ul) at 37° C. for 90 minutes. The renin activity was determined by a standard angiotensin I radioimmunoassay (New England Nuclear Corp.). The amount of test compound in the plasma was determined by comparing the extent of inhibition of renin activity with that produced by a known amount of test compound added to plasma and analyzed above.

[2] = test system: salt-depleted, conscious marmosets; assay: Marmoset blood pressure reduction on intravenous administration; assay type: in vivo, Marmoset monkeys (Callithrix jacchus); details: 100 micrograms/kg intravenously
Experimental: The blood pressure reducing activity of the renin inhibitor compound of Example 1 was determined in vivo in Marmoset monkeys using the following procedure. Common Marmoset monkeys (Callithrix jacchus, Charles River, both sexes, body weight ca. 400 g) were placed on a modified high protein low sodium diet (Purina, St. Louis, Mo.) for 1 week. 24 hours prior to the administration of test compound, Lasix (5 mg/kg, im) was given. On the day of the test, the animal was anesthetized with isoflurane, body weight recorded, and the left femoral artery and vein were catheterized. The animal was allowed to regain consciousness and the title compound of Example 1 (100 micrograms/kg) was administered intravenously in 0.1 mL/kg polyethylene glycol 400 at time zero. Mean arterial blood pressure (MABP) in mmHg was then recorded every ten minutes until 120 minutes.

[3] = iv, 1 mg/kg, IV at 1 mg/kg, read-out: Estimated Plasma Concentration, Mean ± SE
[4] = iv, 1 mg/kg, IV at 1 mg/kg, individual animals, read-out: Estimated Plasma Concentration
[5] = oral, 10 mg/kg, IG at 10 mg/kg, read-out: Estimated Plasma Concentration, Mean ± SE
[6] = oral, 10 mg/kg, IG at 10 mg/kg, individual animals, read-out: Estimated Plasma Concentration

- concentration at 15 min [1, 3]: 170 ± 24.1 ng/mL
- concentration at 30 min [1, 4]: 145 ng/mL
- concentration at 30 min [1, 3]: 123 ± 12.1 ng/mL
- concentration at 1 h [1, 4]: 70.4 ng/mL
- concentration at 1 h [1, 3]: 62.7 ± 6.4 ng/mL
- concentration at 2 h [1, 4]: 48.8 ng/mL
- concentration at 2 h [1, 3]: 58.2 ± 6.2 ng/mL
- concentration at 4 h [1, 4]: 18.6 ng/mL
- concentration at 4 h [1, 3]: 21.9 ± 1.6 ng/mL
- concentration at 6 h [1, 4]: 10.1 ng/mL
- concentration at 6 h [1, 3]: 11.3 ± 1.1 ng/mL
- concentration at 8 h [1, 4]: 6.4 ng/mL
- concentration at 8 h [1, 3]: 5.8 ± 0.5 ng/mL
- concentration at 24 h [1, 4]: 2.5 ng/mL
- concentration at 24 h [1, 3]: 1.8 ± 0.4 ng/mL
- concentration at 15 min [1, 5]: 128 ± 77.2 ng/mL
- concentration at 30 min [1, 5]: 564 ± 158 ng/mL
- concentration at 1 h [1, 6]: 678 ng/mL
- concentration at 1 h [1, 5]: 799 ± 60.5 ng/mL
- concentration at 2 h [1, 6]: 599 ng/mL
- concentration at 2 h [1, 5]: 502 ± 75.8 ng/mL
- concentration at 4 h [1, 6]: 123 ng/mL
- concentration at 4 h [1, 5]: 110 ± 20.9 ng/mL
- concentration at 6 h [1, 6]: 66.9 ng/mL
- concentration at 6 h [1, 5]: 62.1 ± 7.7 ng/mL
- concentration at 8 h [1, 6]: 33.5 ng/mL
- concentration at 8 h [1, 5]: 34.8 ± 5.8 ng/mL
- concentration at 24 h [1, 6]: 6.2 ng/mL
- concentration at 24 h [1, 5]: 7.5 ± 0.7 ng/mL
- bioavailability ([1]; oral, dogs, IG 10 mg/kg vs IV 1 mg/kg): 33%
- Vd ([1]; read-out: Vd, Mean ± SE): 9.5 ± 1 L/kg
- half-life ([1]; read-out: t1/2, Mean ± SE (converted)): 4.7 ± 0.3 h
Compound: C#CC[C@H](NC(=O)C(CC(=O)N(C)CCN(C)C)Cc1ccccc1)C(=O)NC(CC1CCCCC1)[C@@H](O)C(O)CC(C)C (relative stereo) [Example 1, N1-[1R*-[[[1S,1R*-(cyclohexylmethyl)-2S*,3R*-dihydroxy-5-methylhexyl]amino]carbonyl]-3-butynyl]-N4-[2-(dimethylamino)ethyl]-N4-methyl-2S*-(phenylmethyl)butanediamide]
- MABP ([2]; 10 min (n = 3)): 106 mmHg
- MABP ([2]; 20 min (n = 3)): 97 mmHg
- MABP ([2]; 30 min (n = 3)): 93 mmHg
- MABP ([2]; 40 min (n = 3)): 92 mmHg
- MABP ([2]; 50 min (n = 3)): 90 mmHg
- MABP ([2]; 60 min (n = 3)): 89 mmHg
- MABP ([2]; 70 min (n = 3)): 87 mmHg
- MABP ([2]; 80 min (n = 3)): 88 mmHg
- MABP ([2]; 90 min (n = 3)): 89 mmHg
- MABP ([2]; 100 min (n = 3)): 91 mmHg
- MABP ([2]; 110 min (n = 3)): 93 mmHg
- MABP ([2]; 120 min (n = 3)): 94 mmHg
- MABP ([2]; time 0 min (n = 3)): 118 mmHg
- effect on blood pressure (in words) ([2]; salt-depleted, conscious marmosets): lowers blood pressure
